The values that follow come from ChEMBL document CHEMBL1124788, “Conformation-activity relationship study of 5-HT3 receptor antagonists and a definition of a model for this receptor site” (J Med Chem, 1990).

Test [1] addresses T1, Serotonin 3 (5-HT3) receptor (Rattus norvegicus, UniProt P35563+Q9JJ16).
T1 sequence (P35563 whole entry): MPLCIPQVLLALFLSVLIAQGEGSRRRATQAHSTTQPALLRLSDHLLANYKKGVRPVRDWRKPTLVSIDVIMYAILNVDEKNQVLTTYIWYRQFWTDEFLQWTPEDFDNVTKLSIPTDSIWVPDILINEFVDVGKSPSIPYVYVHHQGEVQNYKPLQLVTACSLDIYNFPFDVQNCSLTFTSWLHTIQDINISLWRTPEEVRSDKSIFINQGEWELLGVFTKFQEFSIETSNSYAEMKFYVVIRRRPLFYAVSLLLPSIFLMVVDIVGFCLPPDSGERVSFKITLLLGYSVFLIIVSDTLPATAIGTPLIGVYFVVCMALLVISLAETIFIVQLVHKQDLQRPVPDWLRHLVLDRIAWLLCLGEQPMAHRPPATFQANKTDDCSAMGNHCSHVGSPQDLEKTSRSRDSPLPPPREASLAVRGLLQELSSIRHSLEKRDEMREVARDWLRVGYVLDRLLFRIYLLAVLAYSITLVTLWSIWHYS
T1 sequence (Q9JJ16 whole entry): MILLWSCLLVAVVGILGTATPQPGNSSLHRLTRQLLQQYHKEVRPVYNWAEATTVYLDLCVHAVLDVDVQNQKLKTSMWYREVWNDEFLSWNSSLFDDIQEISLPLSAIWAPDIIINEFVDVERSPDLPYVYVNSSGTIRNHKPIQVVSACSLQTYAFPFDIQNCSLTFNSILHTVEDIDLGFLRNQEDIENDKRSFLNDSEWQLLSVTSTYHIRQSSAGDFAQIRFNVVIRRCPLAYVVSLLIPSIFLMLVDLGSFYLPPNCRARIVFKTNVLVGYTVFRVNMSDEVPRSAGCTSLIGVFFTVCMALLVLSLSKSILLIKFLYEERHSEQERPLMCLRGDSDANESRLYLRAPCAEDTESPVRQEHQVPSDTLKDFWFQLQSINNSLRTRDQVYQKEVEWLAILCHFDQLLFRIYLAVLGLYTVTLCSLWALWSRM
Put plainly: Binding affinity to 5-hydroxytryptamine 3 receptor using [3H]GR-65630 as radioligand in rat cortex.

The target in test [2] is T1, Serotonin 3 (5-HT3) receptor. Put plainly: Binding affinity to 5-hydroxytryptamine 3 receptor using [3H]quipazine as radioligand in rat cortex.
The target in test [3] is T2, Serotonin 3 receptor (5HT3) (Mus musculus) (UniProt Q9JHJ5+P23979). Kind of test: Binding affinity towards 5-hydroxytryptamine 3 receptor was determined by using [3H]-ICS 205-930 as radioligand in mouse N1E 115 cells. The test is classed as cell-based.
T2 sequence (P23979 whole entry, looked up): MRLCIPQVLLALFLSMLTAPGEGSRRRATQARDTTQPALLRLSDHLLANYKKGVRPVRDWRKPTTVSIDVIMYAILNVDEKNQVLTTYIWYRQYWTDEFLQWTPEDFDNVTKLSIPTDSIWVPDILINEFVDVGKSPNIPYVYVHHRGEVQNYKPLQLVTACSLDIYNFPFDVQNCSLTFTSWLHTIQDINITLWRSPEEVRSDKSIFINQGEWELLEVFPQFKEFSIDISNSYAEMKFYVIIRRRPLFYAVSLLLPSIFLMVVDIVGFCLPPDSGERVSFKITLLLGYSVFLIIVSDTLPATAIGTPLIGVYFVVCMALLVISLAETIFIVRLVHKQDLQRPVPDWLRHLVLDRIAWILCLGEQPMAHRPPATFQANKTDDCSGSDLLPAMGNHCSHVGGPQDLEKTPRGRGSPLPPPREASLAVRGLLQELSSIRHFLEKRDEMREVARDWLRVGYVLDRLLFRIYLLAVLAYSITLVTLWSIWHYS
T2 sequence (Q9JHJ5 whole entry, looked up): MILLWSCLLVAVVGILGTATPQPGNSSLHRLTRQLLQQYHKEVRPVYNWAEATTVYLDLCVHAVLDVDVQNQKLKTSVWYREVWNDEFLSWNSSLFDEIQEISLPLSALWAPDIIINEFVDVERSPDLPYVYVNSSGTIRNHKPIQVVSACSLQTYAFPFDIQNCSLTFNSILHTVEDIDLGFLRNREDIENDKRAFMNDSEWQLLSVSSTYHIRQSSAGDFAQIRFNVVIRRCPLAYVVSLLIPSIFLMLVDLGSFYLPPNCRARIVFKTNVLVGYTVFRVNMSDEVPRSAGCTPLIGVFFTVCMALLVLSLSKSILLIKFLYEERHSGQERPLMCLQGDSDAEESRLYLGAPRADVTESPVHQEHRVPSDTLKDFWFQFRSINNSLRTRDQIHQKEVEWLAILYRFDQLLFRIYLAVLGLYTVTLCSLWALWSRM
In test [4] the target is Serotonin 3 (5-HT3) receptor. Kind of test: Potency at neuronal 5-hydroxytryptamine 3 receptors in the rabbit heart. The test is classed as protein-complex assay, Oryctolagus cuniculus.
For test [5], the target named is T2, Serotonin 3 receptor (5HT3) (Mus musculus). Put plainly: (§1) Potency at neuronal 5-hydroxytryptamine 3 receptor in the rabbit heart. It counts as protein assay.
Test [6] has as its target Serotonin 3 (5-HT3) receptor. Described as §1. It counts as protein-complex assay, Oryctolagus cuniculus.
Test [7] deals with Serotonin 3 (5-HT3) receptor. Kind of test: Potency to 5-hydroxytryptamine 3 receptor using [3H]GR-65630 as radioligand in rat cortex.
The target of test [8] is Serotonin 3 (5-HT3) receptor. It counts as protein-complex assay, Oryctolagus cuniculus.
Test [9] deals with Serotonin 3 (5-HT3) receptor. Kind of test: Potency to 5-hydroxytryptamine 3 receptor entirely in guinea pig ileum. It counts as tissue-based, Cavia porcellus.

The structures appear in SMILES notation.

For `c1ccc2nc(N3CCNCC3)ccc2c1` [QUIPAZINE], the Ki is 1.41 nM in test [1] and 1 nM in [2]. This molecule also registered a pKD in [3] of 8.69.

Regarding `CN1[C@@H]2CC[C@H]1C[C@@H](OC(=O)c1c[nH]c3ccccc13)C2` [TROPISETRON], the values for the Ki in [1] and in [2] were 3.16 nM and 0.603 nM, respectively. In [3], this molecule showed a pKD of 9.09. In test [3], `Cc1nccn1CC1CCc2c(c3ccccc3n2C)C1=O` (stereo not given) came in with a negative logarithm of the KD (pKD) of 7.9. With `CCN(CC)CCNC(=O)c1cc(Cl)c(N)cc1OC` [METOCLOPRAMIDE], the results for the Ki in test [1] and in test [2] were 200 nM and 229 nM, respectively. This molecule also came in with a pA2 in [4] of 7.3. Also, in [3], the pKD is 6.65. The molecule `O=C(OC1CC2CCC(C1)N2)c1c[nH]c2ccccc12` (stereo not given) gave a pKD in test [3] of 9.14. For `CN1[C@@H]2CC[C@H]1C[C@@H](OC(=O)c1cc(Cl)cc(Cl)c1)C2` [BEMESETRON], in [1], the Ki is 55 nM. The molecule also had a pKD in test [3] of 8.21. On to `CN1C2CCC1CC(OC(=O)c1cn(C)c3ccc(F)cc13)C2` (stereo not given), for which the negative-log KD (pKD) in test [5] worked out at 9.8. `O=C(c1c[nH]c2ccccc12)C1CCNCC1` showed a pA2 in test [4] of 8.3.

`Cc1cc(C)cc(C(=O)OC2CC3CCC(C2)N3C)c1` (stereo not given) yielded a pA2 in [6] of 9.

Regarding `CN1CC(=O)C2CCC(OC(=O)c3c[nH]c4ccccc34)C1C2` (stereo not given), the pA2 in [4] was found to be 9.8. `Cc1[nH]cnc1CCC(=O)c1cn(C)c2ccccc12`: the “Log Ki” value in test [7] is on record as -8.79. With `C[N+]1(C)CCC(C(=O)c2c[nH]c3ccccc23)CC1.[I-]`, the pA2 in [4] was 9.2. On to `COC(=O)[C@@H]1C2CCC(C[C@@H]1OC(=O)c1ccccc1)N2` (stereo not given in full), for which the pA2 in [6] came to 7.7. The same measure, in the same setting: the value for `CN1[C@@H]2CC[C@H]1C[C@H](OC(=O)c1ccccc1)C2` was 7.2. On to `COc1cc(N)c(Cl)cc1C(=O)N[C@H]1CCN2CCC[C@@H]1C2`, for which the pA2 in test [8] was 8.5; in test [9] it was 7.6; in test [4] it was 8.9.
